Data taken from patent publication US9375000B2, “Pesticidal arylpyrrolidines” (Bayer Intellectual Property GmbH, priority 2011, dated 2016).

Experiments:
Format in all cases: in vivo
[1] = test system: Cucurbit Leaf Beetle (Aulacophora femoralis); experiment: Cucurbit leaf beetle (Aulacophora femoralis) cucumber leaf dip test; conditions: after 7 days
How it was run: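 Cucumber leaves dipped in compound formulated with DMF and polyoxyethylene alkyl phenyl ether, diluted in water, with ammonium salt or ammonium salt plus penetration enhancer at 1000 ppm added if necessary; dried leaves placed on sterilized soil with five second-instar larvae. Kept at 25° C; larval mortality counted after 7 days.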

Thrips palmi = Thrips palmi spray test (THRIPL); conditions: active compound concentration 20 ppm; after 6 days
Experimental: Unless not mentioned otherwise, the test solutions were prepared as follows:
Solvent: 3 parts by weight Dimethylformamide
Emulsifier: 1 part by weight Polyoxyethylene alkyl phenyl ether
In order to make an appropriate formulation of an active compound, 1 part by weight of the active compound is mixed with the above mentioned amount of solvent and emulsifier and the mixture is diluted with water to a prescribed concentration. Ammonium salt or ammonium salt and penetration enhancer in a dosage of 1000 ppm are added to the desired concentration if necessary.
The compound solutions are sprayed to a cucumber seedling (Cucumis sativus). After drying, the treated plant is placed in a plastic stand. About 100 thrips-eggs (Thrips palmi) on a piece of filter paper are attached to the plant and covered with a cage to keep 100% humidity. The plant is kept in a room at 23° C. After 6 days activity in % is evaluated by feeding damage degree. An insecticidal activity of 100 means that there was no feeding damage, whereas an insecticidal activity of 0% means that there is no difference to the untreated control.

[2] = test system: Larvae of Spodoptera litura; experiment: Larvae of Spodoptera litura, method using artificial feeds; conditions: artificial feed, after 7 days
How it was run: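 Compound formulated in dimethylformamide with polyoxyethylene alkyl phenyl ether emulsifier, water-diluted and poured onto artificial diet. Five 3rd-instar Spodoptera litura larvae per cup, held at 25° C and 50-60% humidity. Mortality after 7 days expressed as pesticidal ratio.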

[3] = test system: Two-Spotted Spider Mite (Tetranychus urticae); experiment: Two-spotted spider mite (Tetranychus urticae) spray test on kidney bean; conditions: after 7 days
How it was run: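 Kidney bean plants at the two-leaf stage carried 50-100 adult mites and were sprayed one day later with compound in DMF/polyoxyethylene alkyl phenyl ether diluted in water. Ammonium salt and penetration enhancer at 1000 ppm were added if needed. Acaricidal activity (% mites killed) was scored after 7 days in a greenhouse.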

[4] = active compound concentration 4 ppm
[5] = active compound concentration 20 ppm

Compound	insecticidal activity [1, 4] [%]	insecticidal activity (by feeding damage degree) (Thrips palmi) [%]	insecticidal activity (pesticidal ratio) [2, 4] [%]	acaricidal activity [3, 4] [%]	acaricidal activity [3, 5] [%]	insecticidal activity [1, 5] [%]	insecticidal activity (pesticidal ratio) [2, 5] [%]
CCC(=O)NCc1ccc(N2CCC(c3cc(C(F)(F)F)cc(C(F)(F)F)c3)(C(F)(F)F)C2O)cc1Br (centres unmarked) [A1-217]	100	90	100	100	–	–	–
O=C(NCc1ccc(N2CCC(c3cc(C(F)(F)F)cc(C(F)(F)F)c3)(C(F)(F)F)C2O)cc1C(F)(F)F)C1CC1 (mixture of isomers) [A1-60]	100	98	100	–	100	–	–
CS(=O)(=O)CC(=O)NCc1ccc(N2CCC(c3cccc(C(F)(F)F)c3)(C(F)(F)F)C2O)nc1C(F)(F)F (racemic) [A3-231]	100	90	80	100	100	100	–
CS(=O)(=O)CC(=O)NCc1ccc(N2CCC(c3cc(Cl)cc(Cl)c3)(C(F)(F)F)C2O)nc1C(F)(F)F (centres unmarked) [A3-11]	100	98	100	100	100	100	100
CCC(=O)NCc1ccc(N2CCC(c3cc(Cl)cc(Cl)c3)(C(F)(F)F)C2O)cc1F (mixture of isomers) [A1-96]	–	90	–	–	–	100	–
CCC(=O)NCc1ccc(N2CCC(c3cc(F)cc(C(F)(F)F)c3)(C(F)(F)F)C2O)cc1C(F)(F)F (centres unmarked) [A1-316]	100	90	100	100	100	100	100
O=C(NCc1ccc(N2CCC(c3cc(C(F)(F)F)cc(C(F)(F)F)c3)(C(F)(F)F)C2O)cc1Br)C1CC1 (centres unmarked) [A1-220]	100	90	100	100	–	–	–
Cc1nc(N2CCC(c3cc(Cl)c(Cl)c(Cl)c3)(C(F)(F)F)C2O)ncc1CNC(=O)C1CC1 (centres unmarked) [A4-49]	–	98	100	98	–	100	100
O=C(CC1CC1)NCc1ccc(N2CCC(c3cc(Cl)cc(Cl)c3)(C(F)(F)F)C2O)nc1C(F)(F)F (centres unmarked) [A3-6]	100	90	100	100	100	100	100
O=C(CC1CC1)NCc1ccc(N2CCC(c3cc(Cl)cc(C(F)(F)F)c3)(C(F)(F)F)C2O)nc1C(F)(F)F (mixture of isomers) [A3-270]	100	90	100	100	100	100	100
CS(=O)(=O)CC(=O)NCc1ccc(N2CCC(c3cc(Cl)cc(C(F)(F)F)c3)(C(F)(F)F)C2O)nc1C(F)(F)F (centres unmarked) [A3-275]	100	98	100	100	100	100	100
CCC(=O)NCc1ccc(N2CCC(c3ccc(F)c(C(F)(F)F)c3)(C(F)(F)F)C2O)nc1C(F)(F)F (mixture of isomers) [A3-233]	100	90	100	–	–	100	100
O=C(NCc1ccc(N2CCC(c3cc(Cl)c(F)c(Cl)c3F)(C(F)(F)F)C2O)cc1Br)C1CC1 (centres unmarked) [A1-433]	100	90	100	100	–	–	–
O=C(CC(F)(F)F)NCc1cnc(N2CCC(c3cc(Cl)c(Cl)c(Cl)c3)(C(F)(F)F)C2O)nc1C(F)F (centres unmarked) [A4-221]	100	90	100	100	–	–	–
CC(=O)NCc1cc(F)c(N2CCC(c3cc(Cl)c(Cl)c(Cl)c3)(C(F)(F)F)C2O)nc1Cl (centres unmarked) [A3-366]	–	98	100	–	–	–	–
O=C(CC1CC1)NCc1ccc(N2CCC(c3cc(Cl)c(Cl)c(Cl)c3)(C(F)(F)F)C2O)nc1C(F)(F)F (centres unmarked) [A3-17]	–	90	100	100	100	–	100
CCC(=O)NCc1cc(F)c(N2CCC(c3cc(Cl)c(Cl)c(Cl)c3)(C(F)(F)F)C2O)nc1Cl (centres unmarked) [A3-367]	–	90	100	–	–	–	–
Cc1nc(N2CCC(c3cc(Cl)c(Cl)c(Cl)c3)(C(F)(F)F)C2O)ccc1CNC(=O)CC(F)(F)F (centres unmarked) [A3-84]	–	–	–	–	100	100	100
CSCC(=O)NCc1ccc(N2CCC(c3cc(Cl)cc(Cl)c3)(C(F)(F)F)C2O)cc1C(F)(F)F (centres unmarked) [A1-42]	–	–	–	–	100	100	100
O=C(NCc1ccc(N2CCC(c3cc(Cl)c(Cl)c(Cl)c3)(C(F)(F)F)C2O)nc1Br)C1CC1 (centres unmarked) [A3-115]	–	–	–	–	100	100	100
O=C(NCc1ccc(N2CCC(c3cc(Cl)cc(Cl)c3)(C(F)(F)F)C2O)cc1C(F)(F)F)C1CC1 (centres unmarked) [A1-38]	–	–	–	–	100	100	100
CCC(=O)NCc1cnc(N2CCC(c3cc(C(F)(F)F)cc(C(F)(F)F)c3)(C(F)(F)F)C2O)nc1C(F)(F)F (centres unmarked) [A4-24]	–	–	–	–	100	100	100
CSCC(=O)NCc1ccc(N2CCC(c3cc(C(F)(F)F)cc(C(F)(F)F)c3)(C(F)(F)F)C2O)nc1Br (mixture of isomers) [A3-163]	100	–	100	–	100	100	100
CC(=O)NCc1ccc(N2CCC(c3cc(C(F)(F)F)cc(C(F)(F)F)c3)(C(F)(F)F)C2O)nc1C(F)(F)F (centres unmarked) [A3-23]	–	–	–	–	100	100	100
O=C(NCc1ccc(N2CCC(c3cc(Cl)cc(C(F)(F)F)c3)(C(F)(F)F)C2O)cc1C(F)(F)F)C1CC1 (centres unmarked) [A1-341]	–	–	–	–	100	100	100
CCC(=O)NCc1ccc(N2CCC(c3cc(Cl)c(F)c(Cl)c3)(C(F)(F)F)C2O)nc1C(F)(F)F (mixture of isomers) [A3-200]	–	–	–	–	100	100	100
CCC(=O)NCc1ccc(N2CCC(c3cc(Cl)cc(Cl)c3F)(C(F)(F)F)C2O)cc1C(F)(F)F (centres unmarked) [A1-406]	100	–	100	100	–	–	–
CS(=O)(=O)CC(=O)NCc1ccc(N2CCC(c3cc(Cl)c(Cl)c(Cl)c3)(C(F)(F)F)C2O)nc1C(F)(F)F (centres unmarked) [A3-22]	–	–	–	–	100	100	100
CC(NC(=O)C1CC1)c1ccc(N2CCC(c3cc(Cl)c(Cl)c(Cl)c3)(C(F)(F)F)C2O)cc1 (mixture of isomers) [A2-16]	–	–	–	–	100	100	100
CC(C)C(=O)NCc1ccc(N2CCC(c3cc(Cl)c(Cl)c(Cl)c3)(C(F)(F)F)C2O)nc1C(F)(F)F (centres unmarked) [A3-15]	–	90	100	100	100	–	100
